Source: patent publication US20250059208A1, “KRAS MODULATING COMPOUNDS” (priority 2023, published 2025)

Tests used:
[1] = target: GDP-loaded wild-type KRAS (WT) (Homo sapiens, UniProt P01116); assay: KRAS (GDP) biochemical TR-FRET probe displacement assay, WT; assay type: binding; settings: 2 hours at room temperature
Experimental: (§1) • Compounds were tested for binding to GDP-loaded wild-type KRAS (WT), KRAS-G12C, KRAS-G12D, and KRAS-G12V in a 384-well assay format using a TR-FRET probe displacement assay in buffer consisting of 50 mM Hepes (pH 7.4), 150 mM NaCl. 5 mM MgCl2 and 0.005% Tween-20. 0.03 nM KRAS was used in this assay with 0.02 nM Eu-streptavidin and 12 nM Cy-5 labelled probe. Compounds were serially diluted (1:3) in DMSO. The LabCyte ECHO Acoustic dispenser was used to pre-spot the assay plates (384-well Non-Binding Surface plates, Corning, Catalog #3824) with 50 nL of compound. 5 μL of 2× enzyme concentration was added to the pre-spotted plates and incubated for 30 minutes before adding 5 μL of 2× concentration of Eu-streptavidin and Cy-5 labelled probe (10 μL final reaction volume). The plates were incubated at room temperature for 2 hours before measuring TR-FRET ratio (665 nm/615 nm) on the Envision multimode plate reader. The ratios were normalized to a positive (saturating concentration of known inhibitor) and negative (DMSO) control and plotted against the log of compound concentration. […]

[2] = target: GDP-loaded KRAS-G12C (Homo sapiens, UniProt P01116, G12C); assay: KRAS (GDP) biochemical TR-FRET probe displacement assay, G12C; assay type: binding; settings: 2 hours at room temperature
Chain of GDP-loaded KRAS-G12C (P01116 1-188 isoform P01116-2 G12C): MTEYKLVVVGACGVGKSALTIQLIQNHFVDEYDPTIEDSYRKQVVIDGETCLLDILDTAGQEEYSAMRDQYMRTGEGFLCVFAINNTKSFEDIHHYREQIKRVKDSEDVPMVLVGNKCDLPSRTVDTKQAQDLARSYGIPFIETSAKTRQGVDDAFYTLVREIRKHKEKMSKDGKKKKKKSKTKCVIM
Experimental: as §1

[3] = target: GDP-loaded KRAS-G12V (Homo sapiens, UniProt P01116, G12V); assay: KRAS (GDP) biochemical TR-FRET probe displacement assay, G12V; assay type: binding; settings: 2 hours at room temperature
Chain of GDP-loaded KRAS-G12V (P01116 1-188 isoform P01116-2 G12V): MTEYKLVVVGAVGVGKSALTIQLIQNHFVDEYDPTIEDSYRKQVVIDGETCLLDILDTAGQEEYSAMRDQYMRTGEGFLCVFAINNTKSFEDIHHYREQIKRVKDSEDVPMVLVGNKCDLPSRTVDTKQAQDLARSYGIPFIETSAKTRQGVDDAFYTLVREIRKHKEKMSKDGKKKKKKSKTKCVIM
Experimental: as §1

[4] = target: GDP-loaded KRAS-G12D (Homo sapiens, UniProt P01116, G12D); assay: KRAS (GDP) biochemical TR-FRET probe displacement assay, G12D; assay type: binding; settings: 2 hours at room temperature
Chain of GDP-loaded KRAS-G12D (P01116 1-188 isoform P01116-2 G12D): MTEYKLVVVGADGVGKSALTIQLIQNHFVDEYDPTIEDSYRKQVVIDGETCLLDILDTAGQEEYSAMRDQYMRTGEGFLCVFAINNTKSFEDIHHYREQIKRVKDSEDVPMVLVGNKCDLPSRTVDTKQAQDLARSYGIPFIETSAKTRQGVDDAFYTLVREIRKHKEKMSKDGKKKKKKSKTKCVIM
Experimental: as §1

[5] = tested on: cellular pERK in Kuramochi (WT KRAS) cell-line; assay: Cell based pERK assay, Kuramochi; settings: 2 h, Kuramochi (WT KRAS) cells, 2 hours compound incubation, HTRF Phospho-ERK1/2
Experimental: (§2) Compounds were tested in a 384-well assay format for their ability to inhibit cellular pERK in Kuramochi (WT KRAS), MIA-PaCa-2 (KRAS-G12C), ASPC-1 (KRAS G12D), and NCI-H441 (KRAS-G12V) cell-lines. Compounds were serially diluted (1:3) in DMSO. On day −1, 80 μL of cells were plated per well in the 384 well tissue-culture plates (Greiner: Cat #781080) to seed 5000 cells per wells of AsPC-1 or 7500 cells of MIA-PaCa-2, NCI-H441, and Kuramochi cell lines in RPMI (Corning: Cat #10-040-CM) with 10% fetal bovine serum (FBS) (HyClone: Cat #SH30071-03) and IX penicillin-streptomycin-glutamate (PSG) (Corning: Cat #30-009-C1) for […] and Kuramochi cell lines and DMEM (Corning: Cat #15-018-CM) with 10% FBS and 1×PSG for MIA-PaCa-2 cell line. The plates were then incubated overnight at 37° C. and 5% CO2. On day 0, 400 nL of compound/well was added into the cell plates and mixed 5 times by pipetting using a Beckmann Biomek FX. The cell plates were then incubated for 2 hours at 37° C. and 5% CO2. HTRF Advanced Phospho-ERK1/2 (THR202/TYR204) Detection Kits (PerkinElmer: Cat #64AERPEG) were used to prepare the lysis and detection solution according to manufacturer protocol. Following the 2 hour incubation, 70 μL of medium was aspirated from the plates and 10 μL of lysis and detection solution was added to the plates using a Biotek EL406 washer and dispenser. Plates were sealed and stored overnight at room temperature. HTRF ratio (665 nm/615 nm) was read by Envision multimode reader (PerkinElmer) the next day. The TR-FRET ratios were normalized to a positive (saturating concentration of known inhibitor) and negative (DMSO) control and plotted against the log of compound concentration.

[6] = tested on: cellular pERK in MIA-PaCa-2 (KRAS-G12C) cell-line; assay: Cell based pERK assay, MIA-PaCa-2; settings: Homo sapiens; MIA-PaCa-2 (KRAS-G12C) cells, 2 hours compound incubation, HTRF Phospho-ERK1/2; read-out: MIAPaCa2 pERK EC50
Experimental: as §2

[7] = tested on: cellular pERK in NCI-H441 (KRAS-G12V) cell-line; assay: Cell based pERK assay, NCI-H441; settings: Homo sapiens; NCI-H441 (KRAS-G12V) cells, 2 hours compound incubation, HTRF Phospho-ERK1/2
Experimental: as §2

[8] = tested on: cellular pERK in ASPC-1 (KRAS G12D) cell-line; assay: Cell based pERK assay, ASPC-1; settings: Homo sapiens, ASPC1, 2 h, ASPC-1 (KRAS G12D) cells, 2 hours compound incubation, HTRF Phospho-ERK1/2
Experimental: as §2

Chain of GDP-loaded wild-type KRAS (WT) (P01116 1-188 isoform P01116-2): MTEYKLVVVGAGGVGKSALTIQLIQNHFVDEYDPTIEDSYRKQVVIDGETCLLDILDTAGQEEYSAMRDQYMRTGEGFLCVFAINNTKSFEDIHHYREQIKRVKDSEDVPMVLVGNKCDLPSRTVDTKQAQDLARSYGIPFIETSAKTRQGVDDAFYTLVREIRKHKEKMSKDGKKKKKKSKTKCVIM

SMILES	IC50 [1] [nM]	IC50 [2] [nM]	IC50 [3] [nM]	IC50 [4] [nM]	EC50 [5] [nM]	EC50 [6] [nM]	EC50 [7] [nM]	EC50 [8] [nM]
Cc1cc(-c2ncc3c(N4CC5(F)CCC(F)(C4)N5)nc(OC[C@@]45CCCN4C[C@H](F)C5)nc3c2F)c2cccnc2c1N [Example 2-8]	> 100	> 100	> 100	> 100	> 1000	> 1000	> 1000	> 1000
Cc1cc(-c2c(Cl)cc3c(N4CC5(F)CCC(F)(C4)N5)nc(OC[C@@]45CCCN4C[C@H](F)C5)nc3c2F)c2cccnc2c1N [Example 2-9]	> 100	> 100	> 100	> 100	> 1000	> 1000	> 1000	> 1000
C#Cc1c(F)ccc2cc(N)cc(-c3c(F)cc4c(N5CC6(F)CCC(F)(C5)N6)nc(OCC56CCCN5CCC6)nc4c3F)c12 [Example 2-10]	3.67	4.22	4.17	17.4	5.34	8.62	49	150
C#Cc1c(F)ccc2cc(O)cc(-c3ncc4c(N5CC6(F)CCC(F)(C5)N6)nc(OC[C@@H]5CC[C@]6(COc7cc(C(F)(F)F)ncn7)CCCN56)nc4c3F)c12 [Example 2-11]	12.3	16.8	22.2	11.6	24.5	5.79	56.3	54.5
C#Cc1c(F)ccc2cc(N)cc(-c3ncc4c(N5CC6(F)CCC(F)(C5)N6)nc(OC[C@@]56CCCN5C[C@H](F)C6)nc4c3F)c12 [Example 5-1, 4-(4-(1,5-difluoro-3,8-diazabicyclo[3.2.1]octan-3-yl)-8-fluoro-2-(((2R,7aS)-2-fluorotetrahydro-1H-pyrrolizin-7a(5H)-yl)methoxy)pyrido[4,3-d]pyrimidin-7-yl)-5-ethynyl-6-fluoronaphthalen-2-amine]	2.31	2.78	7.59	15.1	2.94	4.99	8.41	25.9
C#Cc1c(F)ccc2cc(N)cc(-c3ncc4c(N5CC6(F)CCC(F)(C5)N6)nc(OC[C@@]56CCCN5[C@H](COc5cc(C(F)(F)F)ncn5)CC6)nc4c3F)c12 [Example 5-2]	0.94	1.38	4.32	10.3	6.04	3.24	27.1	63.9
C#Cc1c(F)ccc2cc(N)cc(-c3ncc4c(N5CC6(F)CCC(F)(C5)N6)nc(OCC56CCCN5CCC6)nc4c3F)c12 [Example 5-3]	6.62	6.7	26.1	42.5	11.6	15.6	278	760
